Data from patent US20260022143A1, “Cyclic Peptide Inhibitors of IL-23” (JANSSEN PHARMACEUTICA NV, priority 2022, published 2026).
pIC50: −log10 of the molar value. Counter-ions that a name gives are not always drawn. Starred links: 1 amine or outer side, 2 acyl side, 3 side chain; linkers in the order of their positions; H or OH if unused. Positions of bridges follow the written chain, without caps; N, C: chain ends. Non-standard residues stand in square brackets, D forms with d. Residues, ends and D or L forms follow the SMILES beside them. Groups on a side chain read outwards from the residue. *: point of attachment. Me3N+(CH2)2O(CH2)2O(CH2)2CO = C[N+](C)(C)CCOCCOCCC(=O)*; Phe(4-guanidino) = N=C(N)Nc1ccc(C[C@H](N)C(=O)O)cc1; CH2CH2OCH2CH2OCH2CH2NMe3+ = C[N+](C)(C)CCOCCOCC*; Phe(4-N3) = [N-]=[N+]=Nc1ccc(C[C@H](N)C(=O)O)cc1; X21 = O=C([C@H](Cc1cncc(C(F)(F)F)c1)N[*:1])[*:2]; Trp(7-Me) = Cc1cccc2c(C[C@H](N)C(=O)O)c[nH]c12; γGlu = O=C(O)[C@H](CCC(=O)[*:2])N[*:1]; 2Nal = N[C@@H](Cc1ccc2ccccc2c1)C(=O)O; AEF = NCCOc1ccc(C[C@H](N)C(=O)O)cc1; X45 = COCC[N+](C)(C)CCc1cn(CC*)nn1; 3Pal = N[C@@H](Cc1cccnc1)C(=O)O; Lys(Me) = CNCCCC[C@H](N)C(=O)O; Agb = N=C(N)NCC[C@H](N)C(=O)O; NMeK = CN[C@@H](CCCCN)C(=O)O; Pen = CC(C)(S)[C@H](N)C(=O)O; X49 = O=C(CCCCCCCC*)N1CCCCC1; Lauroyl = CCCCCCCCCCCC(=O)*; Thp = NC1(C(=O)O)CCOCC1; X3 = C[N+](C)(C)CCCCC*; AEEA = NCCOCCOCC(=O)O; Aib = CC(C)(N)C(=O)O; Tfa = O=C(C(F)(F)F)*; Sar = CNCC(=O)O

Tests used:
IL-23R = target: T1, IL-23R (Homo sapiens, UniProt Q5VWK5); assay: IL23R Reporter Assay; assay type: cell-based; settings: HEK293 cells containing IL-23R, IL-12RP1 and STAT-inducible firefly luciferase reporter; 10 ng/mL IL-23 (EC90); 5 h at 37° C.; read-out: IL23R Reporter Assay
T1 construct: host or cells: HEK293
T1 sequence (Q5VWK5 24-629): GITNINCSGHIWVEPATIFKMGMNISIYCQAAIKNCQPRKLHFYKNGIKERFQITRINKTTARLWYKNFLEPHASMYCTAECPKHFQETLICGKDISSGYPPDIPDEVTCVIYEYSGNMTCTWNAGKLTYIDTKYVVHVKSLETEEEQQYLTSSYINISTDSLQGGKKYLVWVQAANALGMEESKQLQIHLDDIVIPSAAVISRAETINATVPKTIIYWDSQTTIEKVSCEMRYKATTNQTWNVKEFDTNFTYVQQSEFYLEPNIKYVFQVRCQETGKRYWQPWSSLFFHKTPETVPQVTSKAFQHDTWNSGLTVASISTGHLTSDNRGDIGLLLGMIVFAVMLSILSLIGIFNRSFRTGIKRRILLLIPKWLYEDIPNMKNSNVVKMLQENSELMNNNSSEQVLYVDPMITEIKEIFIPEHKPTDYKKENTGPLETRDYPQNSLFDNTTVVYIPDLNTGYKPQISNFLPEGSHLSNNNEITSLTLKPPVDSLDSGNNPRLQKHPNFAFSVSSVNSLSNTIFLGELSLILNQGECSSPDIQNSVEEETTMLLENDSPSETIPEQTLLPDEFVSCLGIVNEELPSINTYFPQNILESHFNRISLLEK

[1] = Exposed Polar Surface Area (EPSA); assay type: physicochemical; settings: SFC on Chirex 3014 column; sample 1 mM DMSO stock; read-out: EPSA
Summary of the method: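 Polarity measured by SFC on a Chirex 3014 column (35 °C, 4 mL/min) with methanol/ammonium formate in CO2 as gradient eluent. Retention times were normalised to EPSA (Å^2) against eight reference compounds.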

SMILES	pIC50 (IL-23R)	EPSA [1]
CC(=O)N(C)CCCC[C@@H]1NC(=O)[C@H](Cc2c[nH]c3c(C)cccc23)NC(=O)[C@H]([C@@H](C)O)NC(=O)[C@H](CC(=O)N(C)C)NC(=O)[C@@H](NC(=O)CCOCCOCC[N+](C)(C)C)C(C)(C)SSC(C)(C)[C@@H](C(=O)N[C@@H](Cc2ccc(OCCCCCCCCC(=O)N3CCCCC3)cc2)C(=O)N[C@@H](Cc2ccc3ccccc3c2)C(=O)NC2(C(=O)N[C@@H](CCCCN(C)C(C)=O)C(=O)N[C@@H](CC(N)=O)C(=O)N[C@@H](Cc3cccnc3)C(=O)N(C)CC(=O)N(C)C)CCOCC2)NC1=O [compound 242, cPEG3aCO-Pen(3)-N(N(Me)2)-T-7MeW-K(NMeAc)-Pen(3)-YC8COPip-2Nal-THP-K(NMeAc)-N-3Pya-Sar-CON(Me)2] ({Me3N+(CH2)2O(CH2)2O(CH2)2CO}-[Pen]D(NMe2)T[Trp(7-Me)][Lys(Me)](Ac)[Pen]Y(X49)[2Nal][Thp][Lys(Me)](Ac)N[3Pal][Sar]-NMe2; disulfide 1-6)	7.60	145 A^2
CCCCCCCCCCCC(=O)N[C@@H](CCC(=O)NCCOCCOCC(=O)NCCOCCOCC(=O)NCCOCCOCC(=O)NCCOCCOCC(=O)NCCCC[C@@H](NC(=O)CCOCCOCC[N+](C)(C)C)C(=O)N[C@@H]1C(=O)N[C@@H](CC(=O)N(C)C)C(=O)N[C@@H]([C@@H](C)O)C(=O)N[C@@H](Cc2c[nH]c3c(C)cccc23)C(=O)N[C@@H](CCCCNC(C)=O)C(=O)N[C@H](C(=O)N[C@@H](Cc2ccc(OCCCCC[N+](C)(C)C)cc2)C(=O)N[C@@H](Cc2ccc3ccccc3c2)C(=O)NC2(C(=O)N[C@@H](CCCCN(C)C(C)=O)C(=O)N[C@@H](CC(N)=O)C(=O)N[C@@H](Cc3cccnc3)C(=O)N(C)[C@@H](CCCCNC(=O)COCCOCCNC(=O)COCCOCCNC(=O)COCCOCCNC(=O)COCCOCCNC(=O)CC[C@H](NC(=O)CCCCCCCCCCC)C(=O)O)C(N)=O)CCOCC2)C(C)(C)SSC1(C)C)C(=O)O [compound 404, cPEG3aCO-k(PEG2PEG2PEG2PEG2gEC12)-Pen(3)-N(N(Me)2)-T-7MeW-K(Ac)-Pen(3)-TMAPF-2Nal-THP-K(NMeac)-N-3Pya-NMeK(PEG2PEG2PEG2PEG2gEC12)-CONH2] ({Me3N+(CH2)2O(CH2)2O(CH2)2CO}-[dK]([AEEA-AEEA-AEEA-AEEA-γGlu-Lauroyl])[Pen]D(NMe2)T[Trp(7-Me)]K(Ac)[Pen]Y(X3)[2Nal][Thp][Lys(Me)](Ac)N[3Pal][NMeK]([AEEA-AEEA-AEEA-AEEA-γGlu-Lauroyl])-NH2; disulfide 2-7)	7.51	196 A^2
CC(=O)NCCCC[C@@H]1NC(=O)[C@H](Cc2c[nH]c3c(C)cccc23)NC(=O)[C@H]([C@@H](C)O)NC(=O)[C@H](CC(N)=O)NC(=O)[C@@H](NC(=O)C(F)(F)F)C(C)(C)SSC(C)(C)[C@@H](C(=O)N[C@@H](Cc2ccc(OCCN)cc2)C(=O)N[C@@H](Cc2ccc3ccccc3c2)C(=O)NC2(C(=O)N[C@@H](CCCCNC(C)=O)C(=O)N[C@@H](CC(N)=O)C(=O)N[C@@H](Cc3cncc(C(F)(F)F)c3)C(=O)N(C)CC(N)=O)CCOCC2)NC1=O [compound 56] (Tfa-[Pen]NT[Trp(7-Me)]K(Ac)[Pen][AEF][2Nal][Thp]K(Ac)N[X21][Sar]-NH2; disulfide 1-6 (inferred))	8.24	158 A^2
CC(=O)NCCCC[C@@H]1NC(=O)[C@H](Cc2c[nH]c3c(C)cccc23)NC(=O)[C@H]([C@@H](C)O)NC(=O)[C@H](CC(N)=O)NC(=O)[C@@H](NC(C)=O)C(C)(C)SSC(C)(C)[C@@H](C(=O)N[C@@H](Cn2cc(CC[N+](C)(C)C)nn2)C(=O)N[C@@H](Cc2ccc3ccccc3c2)C(=O)NC2(C(=O)N[C@@H](CCCCNC(C)=O)C(=O)N[C@@H](CC(N)=O)C(=O)N[C@@H](Cc3cccnc3)C(=O)N(C)CC(N)=O)CCOCC2)NC1=O [compound 253]	7.40	146 A^2
CC(=O)N(C)CCCC[C@@H]1NC(=O)[C@H](Cc2c[nH]c3c(C)cccc23)NC(=O)[C@H]([C@@H](C)O)NC(=O)[C@H](CC(=O)N(C)C)NC(=O)[C@@H](NC(=O)CCOCCOCC[N+](C)(C)C)C(C)(C)SSC(C)(C)[C@@H](C(=O)N[C@@H](Cc2ccc(OCCCCC[N+](C)(C)C)cc2)C(=O)N[C@@H](Cc2ccc3ccccc3c2)C(=O)NC(C)(C)C(=O)N[C@@H](CCCCN(C)C(C)=O)C(=O)N[C@@H](CC(N)=O)C(=O)N[C@@H](Cc2cccnc2)C(=O)N(C)CC(=O)N(C)C)NC1=O [compound 341, cPEG3aCO-Pen(3)-N(N(Me)2)-T-7MeW-K(NMeAc)-Pen(3)-TMAPF-2Nal-Aib-K(NMeAc)-N-3Pya-Sar-CON(Me)2] ({Me3N+(CH2)2O(CH2)2O(CH2)2CO}-[Pen]D(NMe2)T[Trp(7-Me)][Lys(Me)](Ac)[Pen]Y(X3)[2Nal][Aib][Lys(Me)](Ac)N[3Pal][Sar]-NMe2; disulfide 1-6)	9.01	153 A^2
CC(=O)N(C)CCCC[C@@H]1NC(=O)[C@H](Cc2c[nH]c3c(C)cccc23)NC(=O)[C@H]([C@@H](C)O)NC(=O)[C@H](CCNC(=N)N)NC(=O)[C@@H](NC(=O)CCOCCOCC[N+](C)(C)C)C(C)(C)SSC(C)(C)[C@@H](C(=O)N[C@@H](Cc2ccc(OCCOCCOCC[N+](C)(C)C)cc2)C(=O)N[C@@H](Cc2ccc3ccccc3c2)C(=O)NC2(C(=O)N[C@@H](CCCCN(C)C(C)=O)C(=O)N[C@@H](CC(N)=O)C(=O)N[C@@H](Cc3cccnc3)C(=O)N(C)CC(=O)N(C)C)CCOCC2)NC1=O [compound 411, cPEG3aCO-Pen(3)-Gab-T-7MeW-K(NMeAc)-Pen(3)-APEG3F-2Nal-THP-K(NMeAc)-N-3Pya-Sar-CON(Me)2] ({Me3N+(CH2)2O(CH2)2O(CH2)2CO}-[Pen][Agb]T[Trp(7-Me)][Lys(Me)](Ac)[Pen]Y(CH2CH2OCH2CH2OCH2CH2NMe3+)[2Nal][Thp][Lys(Me)](Ac)N[3Pal][Sar]-NMe2; disulfide 1-6 (inferred))	8.68	155 A^2
COCC[N+](C)(C)CCc1cn(CCOc2ccc(C[C@H](NC(=O)[C@H]3NC(=O)[C@H](CCCCN(C)C(C)=O)NC(=O)[C@H](Cc4c[nH]c5c(C)cccc45)NC(=O)[C@H]([C@@H](C)O)NC(=O)[C@H](CC(=O)N(C)C)NC(=O)[C@@H](NC(=O)CCOCCOCC[N+](C)(C)C)C(C)(C)SSC3(C)C)C(=O)N[C@@H](Cc3ccc4ccccc4c3)C(=O)NC3(C(=O)N[C@@H](CCCCN(C)C(C)=O)C(=O)N[C@@H](CC(N)=O)C(=O)N[C@@H](Cc4cccnc4)C(=O)N(C)CC(=O)N(C)C)CCOCC3)cc2)nn1 [compound 285, cPEG3aCO-Pen(3)-N(N(Me)2)-T-7MeW-K(NMeAc)-Pen(3)-Y(OTzlChmPEG)-2Nal-THP-K(NMeAc)-N-3Pya-Sar-CON(Me)2] ({Me3N+(CH2)2O(CH2)2O(CH2)2CO}-[Pen]D(NMe2)T[Trp(7-Me)][Lys(Me)](Ac)[Pen]Y(X45)[2Nal][Thp][Lys(Me)](Ac)N[3Pal][Sar]-NMe2; disulfide 1-6)	8.42	148 A^2
CC(=O)N(C)CCCC[C@@H]1NC(=O)[C@H](Cc2c[nH]c3c(C)cccc23)NC(=O)[C@H]([C@@H](C)O)NC(=O)[C@H](CC(=O)N(C)C)NC(=O)[C@@H](NC(=O)CCOCCOCC[N+](C)(C)C)C(C)(C)SSC(C)(C)[C@@H](C(=O)N[C@@H](Cc2ccc(N=[N+]=[N-])cc2)C(=O)N[C@@H](Cc2ccc3ccccc3c2)C(=O)NC2(C(=O)N[C@@H](CCCCN(C)C(C)=O)C(=O)N[C@@H](CC(N)=O)C(=O)N[C@@H](Cc3cccnc3)C(=O)N(C)CC(=O)N(C)C)CCOCC2)NC1=O [compound 331, cPEG3aCO-Pen(3)-N(N(Me)2)-T-7MeW-K(NMeAc)-Pen(3)-F(4N3)-2Nal-THP-K(NMeAc)-N-3Pya-Sar-CON(Me)2] ({Me3N+(CH2)2O(CH2)2O(CH2)2CO}-[Pen]D(NMe2)T[Trp(7-Me)][Lys(Me)](Ac)[Pen][Phe(4-N3)][2Nal][Thp][Lys(Me)](Ac)N[3Pal][Sar]-NMe2; disulfide 1-6)	8.92	153 A^2
CC(=O)N(C)CCCC[C@@H]1NC(=O)[C@H](Cc2c[nH]c3c(C)cccc23)NC(=O)[C@H]([C@@H](C)O)NC(=O)[C@H](CC(=O)N(C)C)NC(=O)[C@@H](NC(=O)CCOCCOCC[N+](C)(C)C)C(C)(C)SSC(C)(C)[C@@H](C(=O)N[C@@H](Cc2ccc(NC(=N)N)cc2)C(=O)N[C@@H](Cc2ccc3ccccc3c2)C(=O)NC2(C(=O)N[C@@H](CCCCN(C)C(C)=O)C(=O)N[C@@H](CC(N)=O)C(=O)N[C@@H](Cc3cccnc3)C(=O)N(C)CC(=O)N(C)C)CCOCC2)NC1=O [compound 304, cPEG3aCO-Pen(3)-N(N(Me)2)-T-7MeW-K(NMeAc)-Pen(3)-F(4G)-2Nal-THP-K(NMeAc)-N-3Pya-Sar-CON(Me)2] ({Me3N+(CH2)2O(CH2)2O(CH2)2CO}-[Pen]D(NMe2)T[Trp(7-Me)][Lys(Me)](Ac)[Pen][Phe(4-guanidino)][2Nal][Thp][Lys(Me)](Ac)N[3Pal][Sar]-NMe2; disulfide 1-6)	8.85	164 A^2
